Our source for the EC50 values is patent US20220226298A1, “GPR40 AGONISTS” (Kallyope, Inc., priority 2019, published 2022).

In general, EC50 refers to the midpoint of the concentration-response curve. Low values mean an effect from little substance, high ones a need for much substance.

For the assay, the target named is T1, human GPR40 (Homo sapiens, UniProt O14842).
T1 construct: host or cells: CHO-K1
T1 sequence (O14842 whole entry): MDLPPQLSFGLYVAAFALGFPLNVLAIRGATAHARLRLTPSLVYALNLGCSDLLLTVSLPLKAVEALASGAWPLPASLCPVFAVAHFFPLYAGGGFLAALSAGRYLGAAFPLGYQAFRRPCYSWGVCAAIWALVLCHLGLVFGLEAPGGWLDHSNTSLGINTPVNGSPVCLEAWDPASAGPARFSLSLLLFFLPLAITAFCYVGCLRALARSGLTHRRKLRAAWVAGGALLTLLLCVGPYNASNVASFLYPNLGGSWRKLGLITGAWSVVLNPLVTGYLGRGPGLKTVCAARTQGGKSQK
As to the kind of experiment: Inositol phosphate accumulation assay (IP1 HTRF) in CHO-K1 cells expressing human GPR40. The following applies: 90 min stimulation. It counts as cell-based. The procedure: CHO-KI cells expressing human GPR40 were purchased from DiscoverX (95-1005C2). HEK293 cells expressing mouse FFAR1 were prepared using a mouse FFAR1 carrying plasmid purchased from OriGene Technologies (MR222997). The cells were transfected using Lipofectamine 2000 using manufacturer instructions and stable cell line was established from a single cell using geneticine selection. Assay ready frozen (ARF) cells were prepared and used throughout the study.
The assay was performed in a 384-well plate format using IP1 assay kit from Cis-Bio. ARF cells expressing FFAR1 (mouse and human) were thawed, washed and then plated in the appropriate medium (F12 based medium for CHO hFFAR1 and DMEM based medium for HEK293 mFFAR1—both were supplemented with 10% FBS and penicillin/streptomycin). 20 μL of 3.5×10^5 cells/mL were plated on a Poly D-Lysine coated 384-well white plate. The cells were then incubated for 16 hr at 37° C./5% CO2. After 16 hr the medium was removed and 15 μL of stimulation buffer containing the test compounds was added to the cells. The plates were then incubated for 90 min at 37° C./5% CO2. 5 μL of detection buffer (prepared as described in the IP-one kit) was added to each well and the plates were incubated at RT for 1 hr.
[…] was measured using ClarioSTAR plate reader, calculating the ratio between emissions at 665 nm and 620 nm (HTRF ratio). HTRF ratio for positive (Max) and negative (Min) controls were used to normalize HTRF data and generate values for % activity. EC50 and Max activity values were determined using a standard 4-parameter fit.
The molecule `COc1cc(-c2ccc(OC(=O)c3cccc([C@H](C4CC4)[C@H](C)C(=O)O)c3)cc2)c(F)cn1` [Compound 54] showed an EC50 of at most 10 nM.

`COc1ccc(F)c(-c2ccc(C(=O)Oc3cccc([C@@H](CC(=O)O)C4CC4)c3)c(C)c2)c1` [Compound 6] returned an EC50 of 10 to 100 nM. Then `COc1cc(-c2ccc(C(=O)Oc3cccc([C@H](C4CC4)[C@H](C)C(=O)O)c3F)cc2CN(C(C)C)C(C)C)c(F)cn1` [Compound 69, (2S,3R)-3-cyclopropyl-3-[3-[3-[(diisopropylamino)methyl]-4-(5-fluoro-2-methoxy-4-pyridyl)benzoyl]oxy-2-fluoro-phenyl]-2-methyl-propanoic acid], with at most 10 nM; and `O=C(O)C[C@H](c1cccc(OC(=O)c2ccc(-c3cc(O)ccc3F)cc2)c1)C1CC1` [Compound 2], with 10 to 100 nM; and `COc1cc(-c2ccc(C(=O)Oc3cccc([C@H](C4CC4)[C@H](C)C(=O)O)c3)cc2)ccn1` [Compound 27], with at most 10 nM.

`COc1cc(-c2cnc(C(=O)Oc3cccc([C@@H](CC(=O)O)C4CC4)c3)cn2)c(F)cn1` [Compound 23]: the EC50 is above 500 nM. For `COC(=O)c1cnc(OC)cc1-c1ccc(C(=O)Oc2cccc([C@H](C3CC3)[C@H](C)C(=O)O)c2)cc1CN(C(C)C)C(C)C` [Compound 53], the half-maximal effective concentration (EC50) is at most 10 nM. `COc1cc(-c2cc(F)c(OC(=O)c3cccc([C@H](C4CC4)[C@H](C)C(=O)O)c3)cc2CN(C(C)C)C(C)C)ccn1` [Compound 59, (2S,3R)-3-cyclopropyl-3-(3-((5-((diisopropylamino)methyl)-2-fluoro-4-(2-methoxypyridin-4-yl)phenoxy)carbonyl)phenyl)-2-methylpropanoic acid] returned a concentration giving a half-maximal response (EC50) of at most 10 nM.

For the molecule `COc1cc(-c2cc(C)c(C(=O)Oc3cccc([C@H](C4CC4)[C@H](C)C(=O)O)c3)cc2CN(C(C)C)C(C)C)c(F)cn1` [Compound 21, (2S,3R)-3-cyclopropyl-3-(3-((5-((diisopropylamino)methyl)-4-(5-fluoro-2-methoxypyridin-4-yl)-2-methylbenzoyl)oxy)phenyl)-2-methylpropanoic acid], the EC50 was at most 10 nM. For `CC(c1cc(C(F)(F)F)ccc1C(F)(F)F)N1CC[C@@H](OC(=O)c2cccc([C@@H](CC(=O)O)C3CC3)c2)C1` (stereo partly drawn) [Compound 48], the EC50 was above 500 nM. Molecule `COc1cc(-c2ccc(C(=O)Oc3cccc([C@H](C4CC4)[C@H](C)C(=O)O)c3)cc2CN(C(C)C)C(C)C)ccn1` [Compound 28] showed an EC50 of at most 10 nM.

In the case of `COc1cc(-c2ccc(C(=O)Oc3cccc([C@@H](CC(=O)O)C4CC4)c3)c(C)c2)c(F)cn1` [Compound 10, (S)-3-cyclopropyl-3-(3-((4-(5-fluoro-2-methoxypyridin-4-yl)-2-methylbenzoyl)oxy)phenyl)propanoic acid], the EC50 lay in the range of 100 to 500 nM. In the case of `COc1ccc(F)c(-c2cc(C(=O)Oc3cccc([C@@H](CC(=O)O)C4CC4)c3)on2)c1` [Compound 7, (S)-3-cyclopropyl-3-(3-((3-(2-fluoro-5-methoxyphenyl)isoxazole-5-carbonyl)oxy)phenyl)propanoic acid] it was above 500 nM; in that of `CCN(Cc1cc(C(=O)Oc2cccc([C@@H](CC(=O)O)C3CC3)c2)c(C)cc1-c1cc(OC)ncc1F)C(C)C` [Compound 11, (S)-3-cyclopropyl-3-(3-((5-((ethyl(isopropyl)amino)methyl)-4-(5-fluoro-2-methoxypyridin-4-yl)-2-methylbenzoyl)oxy)phenyl)propanoic acid], 100 to 500 nM; in that of `COc1cc(-c2ccc(C(=O)Oc3cccc(C(CS(=O)(=O)O)C4CC4)c3)cc2CN(C(C)C)C(C)C)c(F)cn1` (stereo not drawn) [Compound 67, 2-cyclopropyl-2-(3-((3-((diisopropylamino)methyl)-4-(5-fluoro-2-methoxypyridin-4-yl)benzoyl)oxy)phenyl)ethanesulfonic acid], above 500 nM.
